From PMC9405102, “Targeted Modification and Structure-Activity Study of GL-29, an Analogue of the Antimicrobial Peptide Palustrin-2ISb” (Antibiotics, 2022)
Read-outs that look alike come from different tables or passages of the source. Where no end group is shown, it is not given here.

Key:
MRSA (B038 V1S1 A) = assay type: cell-based, methicillin-resistant S. aureus; conditions: B038 V1S1 A
Description: (§1) The antimicrobial activity of the peptides was determined through the minimum inhibitory concentrations (MICs) and the minimum bactericidal concentration (MBCs) using the broth-dilution method in a 96-well plate, as described in the previous study. Six bacteria, including the Gram-positive bacteria, S. aureus (ATCC CRM 6538), MRSA (ATCC CRM 12493) and E. faecalis (NCTC 12697), the Gram-negative bacteria, E. coli (ATCC CRM 8739), K. pneumoniae (ATCC CRM 43816) and P. aeruginosa (ATCC CRM 9027), the yeast, C. albicans (ATCC CRM 10231) and clinical isolates, S. aureus (B042 V2E1 A), MRSA (B038 V1S1 A), E. coli (ATCC BAA-2340) and K. pneumoniae (ATCC BAA-1705) were used in these assays to evaluate the antimicrobial potency of the two peptides by determining their MICs and MBCs. All bacteria were cultured in MHB and the yeast, C. albicans was cultured in YPD broth overnight. Then, the microorganisms were sub-cultured and diluted to the final concentration of 2 × 10^5 CFU/mL to 5 × 10^5 CFU/mL. The Norfloxacin and amphotericin B were used as positive controls for the bacteria and yeast, respectively. The assay was repeated three times, with five replicates at each time.

MRSA (ATCC CRM 12493) [1] = assay type: cell-based, methicillin-resistant S. aureus; conditions: ATCC CRM 12493
Description: as §1

horse erythrocytes = assay type: cell-based
Description: The haemolysis assays were performed by incubating prewashed erythrocyte suspension obtained from fresh defibrinated horse blood (TCS Biosciences Ltd., Buckingham, UK) with a range of peptides at final concentrations from 512 to 1 μM, for 2 h at 37 °C. The red cell suspensions were washed with phosphate-buffered saline (PBS) until the supernatant was clear and then diluted with PBS to form a 2% cell suspension. Peptides were 2-fold diluted by the 2% cell suspension to reach the final concentration range from 512 to 1 μM. The haemolysis of the cell suspensions with either 1% (v/v) Triton X-100 or PBS, were considered as positive controls and negative controls, respectively. After incubation, the extent of haemolysis was determined by measuring the absorbance of the supernatant from each sample at 570 nm with a Synergy HT plate reader (BioTek, USA).
Data were analysed using Prism (Version 8.2.1; GraphPad Software, Inc, San Diego, CA, USA). Error bars in the graphs represented standard errors of means (SEM) of nine repeats from three independent tests. The statistical significance was calculated using two-way ANOVA and is indicated as ns (non-significant difference), * (p < 0.05), ** (p < 0.01), *** (p < 0.001), ****(p < 0.0001). The HC10, HC50 and IC50 values were calculated using the online tool AAT Bioquest (https://www.aatbio.com/index.html, accessed on 6 May 2022).

MRSA (ATCC CRM 12493) [2] = assay type: cell-based, methicillin-resistant S. aureus; conditions: ATCC CRM 12493, 24 h
Description: (§2) The MBIC and MBEC assays were performed to measure the inhibition and eradication of bacterial biofilm in the presence of different concentrations of peptides. Gram-positive bacteria were inoculated in Luria–Bertani (LB) broth at 37 °C overnight whereas Gram-negative bacteria were inoculated in tryptic soy broth (TSB), and then sub-cultured until reaching the logarithmic growth phase by measuring the OD values at a wavelength of 550nm. For the MBIC assay, 99 µL of diluted bacterial suspension (5 × 10^5 CFU/mL) was mixed with 1 µL of prepared peptide solutions in the wells of a round-bottomed 96-well plate, achieving the final concentrations from 512 to 1 µM, and then incubated at 37 °C for 24 h in a shaking incubator at 200 revolutions per minute (rpm). After this, the plate was washed twice by PBS and fixed with methanol for 30 min. For MBEC assay, 100 µL of diluted bacterial suspension (5 × 10^5 CFU/mL) was seeded into a round-bottomed 96-well plate and incubated at 37 °C for 24 h in a shaking incubator at 200 rpm to obtain mature biofilm. After this, plates were washed twice by PBS and incubated with different concentrations of peptide solution from 512 to 1 µM at 37 °C for 24 h. Afterwards, the plate was washed twice with PBS and fixed with methanol for 30 min. Then, both MBIC and MBEC plates were stained by 130 μL of 0.1% (g/v) crystal violet solutions for 30 min and washed with PBS until no apparent staining was observed. Evaporating crystal violet stains were dissolved by 33% (v/v) acetic acid, and the absorbance values were measured by a Synergy HT Microplate Reader (BioTek, Minneapolis, MN, USA) set to 595 nm. The minimum concentration that inhibited the formation of biofilm was defined when compared to the negative control group, as the MBIC. The minimum concentration that eradicated the biofilm was defined, when compared to the negative control group, as the MBEC. The biofilm assays were performed in triplicate.

E. coli (ATCC BAA-2340) = assay type: cell-based, Escherichia coli; conditions: ATCC BAA-2340
Description: as §1

E. coli (ATCC CRM 8739) [3] = assay type: cell-based, Escherichia coli; conditions: ATCC CRM 8739
Description: as §1

[4] = tested on: S. aureus (ATCC CRM 6538); assay type: cell-based, Staphylococcus aureus; conditions: ATCC CRM 6538, 24 h
Description: as §2

E. faecalis (NCTC 12697) [5] = assay type: cell-based, Enterococcus faecalis; conditions: NCTC 12697
Description: as §1

[6] = tested on: K. pneumoniae (ATCC CRM 43816); assay type: cell-based, Klebsiella pneumoniae; conditions: ATCC CRM 43816, 24 h
Description: as §2

[7] = tested on: S. aureus (ATCC CRM 6538); assay type: cell-based, Staphylococcus aureus; conditions: ATCC CRM 6538
Description: as §1

S. aureus (B042 V2E1 A) = assay type: cell-based, Staphylococcus aureus; conditions: B042 V2E1 A
Description: as §1

[8] = tested on: C. albicans (ATCC CRM 10231); assay type: cell-based, Candida albicans; conditions: ATCC CRM 10231
Description: as §1

E. coli (ATCC CRM 8739) [9] = assay type: cell-based, Escherichia coli; conditions: ATCC CRM 8739, 24 h
Description: as §2

[10] = tested on: P. aeruginosa (ATCC CRM 9027); assay type: cell-based, Pseudomonas aeruginosa; conditions: ATCC CRM 9027, 24 h
Description: as §2

[11] = tested on: K. pneumoniae (ATCC BAA-1705); assay type: cell-based, Klebsiella pneumoniae; conditions: ATCC BAA-1705
Description: as §1

[12] = tested on: K. pneumoniae (ATCC CRM 43816); assay type: cell-based, Klebsiella pneumoniae; conditions: ATCC CRM 43816
Description: as §1

E. faecalis (NCTC 12697) [13] = assay type: cell-based, Enterococcus faecalis; conditions: NCTC 12697, 24 h
Description: as §2

[14] = tested on: P. aeruginosa (ATCC CRM 9027); assay type: cell-based, Pseudomonas aeruginosa; conditions: ATCC CRM 9027
Description: as §1

Substance	MBC (MRSA (B038 V1S1 A))	MIC (MRSA (B038 V1S1 A))	MBC (MRSA (ATCC CRM 12493) [1])	MIC (MRSA (ATCC CRM 12493) [1])	MBEC (MRSA (ATCC CRM 12493) [2])	MBIC (MRSA (ATCC CRM 12493) [2])	MBC (E. coli (ATCC BAA-2340))	MIC (E. coli (ATCC BAA-2340))	MBC (E. coli (ATCC CRM 8739) [3])	MIC (E. coli (ATCC CRM 8739) [3])	MBEC [4]	MBIC [4]	MBC (E. faecalis (NCTC 12697) [5])	MIC (E. faecalis (NCTC 12697) [5])	MBEC [6]	MBIC [6]	MBC [7]	MIC [7]	MBC (S. aureus (B042 V2E1 A))	MIC (S. aureus (B042 V2E1 A))	other results
FVNVLDKIR-NH2 [FV-9, FVNVLDKIR-NH2]	>512 µM	>512 µM	>512 µM	>512 µM	>512 µM	>512 µM	>512 µM	>512 µM	>512 µM	>512 µM	>512 µM	>512 µM	>512 µM	>512 µM	>512 µM	>512 µM	>512 µM	>512 µM	>512 µM	>512 µM	HC10 (horse erythrocytes): 504.21 µM; HC10 (horse erythrocytes; red cells of horse, 2 h): 504.2 µM; MBC [8]: >512 µM; MIC [8]: >512 µM; MBEC (E. coli (ATCC CRM 8739) [9]): >512 µM; MBIC (E. coli (ATCC CRM 8739) [9]): >512 µM; MBEC [10]: >512 µM; MBIC [10]: >512 µM; MBC [11]: >512 µM; MIC [11]: >512 µM; MBC [12]: >512 µM; MIC [12]: >512 µM; MBEC (E. faecalis (NCTC 12697) [13]): >512 µM; MBIC (E. faecalis (NCTC 12697) [13]): >512 µM; MBC [14]: >512 µM; MIC [14]: >512 µM
LFVNVLDKIR-NH2 [LF-10, LFVNVLDKIR-NH2]	>512 µM	>512 µM	>512 µM	>512 µM	>512 µM	>512 µM	>512 µM	>512 µM	>512 µM	>512 µM	>512 µM	>512 µM	>512 µM	>512 µM	>512 µM	>512 µM	>512 µM	>512 µM	>512 µM	>512 µM	MBC [8]: >512 µM; MIC [8]: >512 µM; MBEC (E. coli (ATCC CRM 8739) [9]): >512 µM; MBIC (E. coli (ATCC CRM 8739) [9]): >512 µM; MBEC [10]: >512 µM; MBIC [10]: >512 µM; MBC [11]: >512 µM; MIC [11]: >512 µM; MBC [12]: >512 µM; MIC [12]: >512 µM; MBEC (E. faecalis (NCTC 12697) [13]): >512 µM; MBIC (E. faecalis (NCTC 12697) [13]): >512 µM; MBC [14]: >512 µM; MIC [14]: >512 µM
